Consider nine molecules from patent US20110086759A1, “CHEMICAL COMPOUNDS” (SYNGENTA CROP PROTECTION, INC., priority 2007, published 2011).

Assay type in all cases: in vivo
Assay [1] has as its system Setaria faberi (SETFA). The assay is described as follows: Pre-emergence biological efficacy, glasshouse pot test. As to conditions: 312 h, pre-emergence, 1,000 g/ha, evaluated after 13 days (100=total damage; 0=no damage), read-out: Percentage damage SETFA. In short, it runs like this:
(§1)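 Standard soil, pots, sown then sprayed at day 1 with 1000 or 250 g/ha test compound. Glasshouse: 24/16 °C, 14 h photoperiod, 65% humidity, twice-daily watering. Evaluation day 13, 0–100 damage score.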

For assay [2], the system named is Ipomea hederaceae (IPOHE). The description is as above. As to conditions: Ipomoea hederacea, 312 h; pre-emergence, 1,000 g/ha, evaluated after 13 days (100=total damage; 0=no damage); read-out: Percentage damage IPOHE. In short, it runs like this:
as §1

Assay [3] concerns Alopecurus myosuroides (ALOMY). The assay is described as above. The settings on record: 312 h, pre-emergence, 1,000 g/ha, evaluated after 13 days (100=total damage; 0=no damage), read-out: Percentage damage ALOMY. In a few lines: as §1
The subject of assay [4] is Amaranthus retoflexus (AMARE). Described as above. The settings on record: Amaranthus retroflexus, 312 h; pre-emergence, 1,000 g/ha, evaluated after 13 days (100=total damage; 0=no damage); read-out: Percentage damage AMARE. In a few lines: as §1
The subject of assay [5] is Solanum nigrum (SOLNI). The description is as above. As to conditions: 312 h, pre-emergence, 1,000 g/ha, evaluated after 13 days (100=total damage; 0=no damage), read-out: Percentage damage SOLNI. In short, it runs like this: as §1
Assay [6] concerns Echinochloa crus-galli (ECHCG). Described as above. The settings on record: 312 h, pre-emergence, 1,000 g/ha, evaluated after 13 days (100=total damage; 0=no damage), read-out: Percentage damage ECHCG. In short, it runs like this:
as §1

Assay [7] has as its system Setaria faberi (SETFA). The assay is described as follows: Post-emergence biological efficacy, glasshouse pot test. As to conditions: 312 h, post-emergence, 1,000 g/ha, evaluated after 13 days (100=total damage; 0=no damage), read-out: Percentage damage caused to weed species, SETFA. In a few lines:
(§2)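 Scored 13 days after spraying on a 0 (no damage) to 100 (total damage) scale. Treatment was a post-emergence spray at 1000 or 250 g/ha, from acetone/water 50:50 plus 0.5% Tween 20, onto 8-day-old plants in soil pots. Growth at 24/16° C, 14 h photoperiod, 65% humidity, watered twice daily.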

Assay [8] concerns Ipomea hederaceae (IPOHE). The description is as above. As to conditions: Ipomoea hederacea, 312 h; post-emergence, 1,000 g/ha, evaluated after 13 days (100=total damage; 0=no damage); read-out: Percentage damage caused to weed species, IPOHE. In short, it runs like this:
as §2

Assay [9] concerns Alopecurus myosuroides (ALOMY). The assay is described as above. As to conditions: 312 h, post-emergence, 1,000 g/ha, evaluated after 13 days (100=total damage; 0=no damage), read-out: Percentage damage caused to weed species, ALOMY. In short, it runs like this: as §2
Assay [10] deals with Amaranthus retoflexus (AMARE). The description is as above. The settings on record: Amaranthus retroflexus, 312 h; post-emergence, 1,000 g/ha, evaluated after 13 days (100=total damage; 0=no damage); read-out: Percentage damage caused to weed species, AMARE. In short, it runs like this: as §2
Assay [11] has as its system Solanum nigrum (SOLNI). The assay is described as above. As to conditions: 312 h, post-emergence, 1,000 g/ha, evaluated after 13 days (100=total damage; 0=no damage), read-out: Percentage damage caused to weed species, SOLNI. In a few lines: as §2
For assay [12], the system named is Echinochloa crus-galli (ECHCG). The description is as above. The settings on record: 312 h, post-emergence, 1,000 g/ha, evaluated after 13 days (100=total damage; 0=no damage), read-out: Percentage damage caused to weed species, ECHCG. In a few lines: as §2

For the molecule `COC(=O)c1nc(C2CC2)nc(NC(C)CC2CCCC2)c1Cl` (stereo not drawn) [Compound 4-230, 5-Chloro-4-(2-cyclopentyl-1-methyl-ethylamino)-2-cyclopropyl-6-methoxycarbonyl-pyrimidine], the pest or weed control at 1000 g/ha in the assay with Setaria faberi (SETFA) [1] came to 0%; in assay [2], 40%; in assay [3], 0%; in assay [4], 10%; with Solanum nigrum (SOLNI) [5] it was 0%; in assay [6], 0%. The pest or weed control at 1000 g/ha with Setaria faberi (SETFA) [7] was determined as 0%; in [8] it was 40%; in assay [9], 0%; in assay [10], 40%; in the assay with Solanum nigrum (SOLNI) [11] it was 40%; in assay [12] it was 0%.

In the case of `COC(=O)c1nc(C2CC2)nc(NC(C)Cc2c[nH]c3ccccc23)c1Cl` (stereo not drawn) [Compound 4-231, 5-Chloro-2-cyclopropyl-4-[2-(indol-3-yl)-1-methyl-ethylamino]-6-methoxy-carbonylpyrimidine], the pest or weed control at 1000 g/ha with Setaria faberi (SETFA) [1] is 0%; in assay [2], 70%; in assay [3], 0%; in assay [4] it was 30%; with Solanum nigrum (SOLNI) [5], 10%; in [6], 0%. Besides, the pest or weed control at 1000 g/ha was found to be 30% with Setaria faberi (SETFA) [7]; 60% in assay [8]; 10% in [9]; 90% in [10]; 70% in the assay on Solanum nigrum (SOLNI) [11]; 10% in [12].

Regarding `COC(=O)c1nc(C2CC2)nc(NCC(C)c2ccccc2)c1Cl` (stereo not drawn) [Compound 4-232, 5-Chloro-2-cyclopropyl-6-methoxycarbonyl-4-[2-(phenyl)propyl-amino]-pyrimidine], the pest or weed control at 1000 g/ha in the assay with Setaria faberi (SETFA) [1] was 30%; in [2], 50%; in [3], 10%; in assay [4], 90%; with Solanum nigrum (SOLNI) [5], 80%; in assay [6], 30%. For the same molecule, the pest or weed control at 1000 g/ha with Setaria faberi (SETFA) [7] is 50%; in assay [8], 100%; in [9], 20%; in assay [10] it was 100%; in the assay with Solanum nigrum (SOLNI) [11] it was 70%; in [12], 30%.

With `COC(=O)c1nc(C2CC2)nc(NCC(C)c2ccc(Cl)cc2)c1Cl` (stereo not drawn) [Compound 4-233, 5-Chloro-4-[2-(4-chlorophenyl)propyl-amino]-2-cyclopropyl-6-methoxycarbonyl-pyrimidine], the pest or weed control at 1000 g/ha in the assay on Setaria faberi (SETFA) [1] was determined as 0%; in assay [2], 10%; in assay [3] it was 0%; in [4], 40%; in the assay on Solanum nigrum (SOLNI) [5], 20%; in assay [6], 0%. For the same molecule, the pest or weed control at 1000 g/ha in the assay with Setaria faberi (SETFA) [7] was 50%; in assay [8], 60%; in [9], 10%; in assay [10] it was 100%; in the assay with Solanum nigrum (SOLNI) [11] it was 80%; in [12] it was 20%.

Turning to `COC(=O)c1nc(C2CC2)nc(NCC(F)c2ccccc2Br)c1Cl` (stereo not drawn) [Compound 4-234, 4-[2-(2-Bromophenyl)-2-fluoro-ethylamino]-5-chloro-2-cyclopropyl-6-methoxycarbonyl-pyrimidine], the pest or weed control at 1000 g/ha with Setaria faberi (SETFA) [1] was determined as 0%; in [2] it was 0%; in assay [3] it was 0%; in assay [4], 10%; in the assay on Solanum nigrum (SOLNI) [5], 0%; in [6] it was 0%. The pest or weed control at 1000 g/ha in the assay with Setaria faberi (SETFA) [7] came out at 30%; in assay [8] it was 60%; in assay [9], 0%; in [10] it was 90%; in the assay on Solanum nigrum (SOLNI) [11] it was 70%; in assay [12] it was 20%.

In the case of `COC(=O)c1nc(C2CC2)nc(NCC(F)c2ccc(Br)cc2)c1Cl` (stereo not drawn) [Compound 4-236, 4-[2-(4-Bromophenyl)-2-fluoro-ethylamino]-5-chloro-2-cyclopropyl-6-methoxycarbonyl-pyrimidine], the pest or weed control at 1000 g/ha in the assay on Setaria faberi (SETFA) [1] worked out at 0%; in assay [2], 0%; in assay [3] it was 0%; in [4], 0%; with Solanum nigrum (SOLNI) [5], 60%; in [6], 0%. The pest or weed control at 1000 g/ha in the assay on Setaria faberi (SETFA) [7] amounted to 40%; in [8], 60%; in [9] it was 0%; in assay [10], 100%; with Solanum nigrum (SOLNI) [11], 70%; in [12] it was 0%.

Consider `COC(=O)c1nc(C2CC2)nc(NCC(F)c2cccc(C(F)(F)F)c2)c1Cl` (stereo not drawn) [Compound 4-237, 5-Chloro-2-cyclopropyl-4-[2-fluoro-2-(3-trifluoromethyl-phenyl)ethylamino]-6-methoxy-carbonylpyrimidine], for which the pest or weed control at 1000 g/ha worked out at 0% in the assay with Setaria faberi (SETFA) [1]; 10% in assay [2]; 0% in [3]; 30% in assay [4]; 0% with Solanum nigrum (SOLNI) [5]; 0% in assay [6]. Besides, the pest or weed control at 1000 g/ha in the assay on Setaria faberi (SETFA) [7] came out at 40%; in assay [8] it was 60%; in assay [9] it was 0%; in assay [10], 100%; with Solanum nigrum (SOLNI) [11], 70%; in assay [12], 30%.

As to `COC(=O)c1nc(C2CC2)nc(NCC(F)c2ccc(F)cc2F)c1Cl` (stereo not drawn) [Compound 4-238, 5-Chloro-2-cyclopropyl-4-[2-(2,4-difluoro-phenyl)-2-fluoro-ethylamino]-6-methoxycarbonyl-pyrimidine], the pest or weed control at 1000 g/ha is 0% in the assay on Setaria faberi (SETFA) [1]; 0% in assay [2]; 0% in assay [3]; 10% in [4]; 50% with Solanum nigrum (SOLNI) [5]; 0% in [6]. For the same molecule, the pest or weed control at 1000 g/ha in the assay on Setaria faberi (SETFA) [7] amounted to 0%; in [8], 60%; in assay [9], 10%; in [10] it was 90%; in the assay with Solanum nigrum (SOLNI) [11], 70%; in assay [12], 0%.

Consider `COC(=O)c1nc(C2CC2)nc(NCC(F)c2ccc(Cl)cc2Cl)c1Cl` (stereo not drawn) [Compound 4-239, 5-Chloro-2-cyclopropyl-4-[2-(2,4-dichlorophenyl)-2-fluoro-ethylamino]-6-methoxycarbonyl-pyrimidine], for which the pest or weed control at 1000 g/ha in the assay on Setaria faberi (SETFA) [1] came to 0%; in [2], 10%; in assay [3], 0%; in [4] it was 20%; in the assay with Solanum nigrum (SOLNI) [5], 0%; in [6], 0%. Further, the pest or weed control at 1000 g/ha with Setaria faberi (SETFA) [7] came out at 20%; in assay [8] it was 50%; in [9], 0%; in assay [10], 90%; in the assay with Solanum nigrum (SOLNI) [11], 60%; in [12], 0%.
